In PMC7148433 (Biochemical Journal, 2020):

Target: T1, lipocalin-type prostaglandin D synthase (L-PGDS) (Homo sapiens, UniProt P41222)
T1 sequence (P41222 23-190): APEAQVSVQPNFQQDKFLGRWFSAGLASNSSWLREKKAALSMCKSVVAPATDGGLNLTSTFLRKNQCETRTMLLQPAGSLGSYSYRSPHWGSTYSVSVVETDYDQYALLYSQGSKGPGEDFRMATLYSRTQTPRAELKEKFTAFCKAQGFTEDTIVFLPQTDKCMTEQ
Experiment: tryptophan fluorescence quenching
Type: binding

Kd: 0.04 µM
SMILES: C=CC1=C(C)C2=Cc3c(C=C)c(C)c4[n]3[Fe][n]3c(c(C)c(CCC(=O)O)c3=CC3=NC(=C4)C(C)=C3CCC(=O)O)=CC1=N2 [heme]
